From the supplement of paper PMC11208160

assay: recombinant UMI read abundance after kanamycin selection (control-corrected) (log10(CPM+1)); higher = more efficient recombination; extreme values may be limits of the assay; sequences stand for … in AGTGCAGAGAAAATCGGCCAGTTTTCTCTGCCTGCAGTCCGCATGCCGTGGGACCCCTTGGGTTCTAACCTGTTGCCTAGATTTATGCAGCGGACTGCCTTTCTCCCAAAGTGATAAACCGG…AGGTTGGTTTCACT; site = the 11-nt donor
Method: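 Pooled E. coli donor-specificity screen for the IS621 bridge recombinase. Each library member carries a reprogrammed 11-nt donor and a full-length LE bridge RNA expressed in cis from the natural promoter, with a paired donor-binding loop (8-nt LDG + 4-nt RDG) and a target-binding loop fixed to T5. It is co-electroporated with a T5 target plasmid; recombinase is induced with 0.07 mM IPTG and recombinants are selected on kanamycin. UMIs are counted as CPM, averaged over two biological replicates and corrected by the unselected control. Molecule = full bridge RNA written as DNA, built from the T5 scaffold: LDG = donor specificity nt 1-8, RDG = reverse complement of nt 8-11.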
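Note: IS621 bridge recombinase in Escherichia coli cells against a fixed T5 target plasmid.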

Row | Sequence | recombinant UMI read abundance (log10)
1 | AATGTGTCATGGACCGGTTTTCCCGGTAATCCGTATTTGCC (site AATGTGTCTGA) | 0
2 | AATGTGTCATGGACCGGTTTTCCCGGTAATCCGTATTTGCC (site AATGTGTCTGC) | 0
3 | AATGTGTCATGGACCGGTTTTCCCGGTAATCCGTATTTGCC (site AATGTGTCTGG) | 2.81
4 | AATGTGTCATGGACCGGTTTTCCCGGTAATCCGTATTTGCC (site AATGTGTCTGT) | 2.16
5 | AATGTTACATGGACCGGTTTTCCCGGTAATCCGTATTTGCT (site AATGTAACTAG) | 1.05
6 | AATGTTACATGGACCGGTTTTCCCGGTAATCCGTATTTGCT (site AATGTCACTAG) | 1.13
7 | AATGTTACATGGACCGGTTTTCCCGGTAATCCGTATTTGCT (site AATGTGACTAG) | 0.00476
8 | AATGTTACATGGACCGGTTTTCCCGGTAATCCGTATTTGCT (site AATGTTACTAG) | 2.3
9 | AATTAAGCATGGACCGGTTTTCCCGGTAATCCGTATTTGGA (site AATTAAGCTTC) | 0.894
10 | AATTAAGCATGGACCGGTTTTCCCGGTAATCCGTATTTGGA (site AATTACGCTTC) | 0.395
11 | AATTAAGCATGGACCGGTTTTCCCGGTAATCCGTATTTGGA (site AATTAGGCTTC) | 0.648
12 | AATTAAGCATGGACCGGTTTTCCCGGTAATCCGTATTTGGA (site AATTATGCTTC) | 0.412
13 | AATTATCCATGGACCGGTTTTCCCGGTAATCCGTATTTGCT (site AATTATCCTAG) | 0.673
14 | AATTATCCATGGACCGGTTTTCCCGGTAATCCGTATTTGCT (site CATTATCCTAG) | 0.041
15 | AATTATCCATGGACCGGTTTTCCCGGTAATCCGTATTTGCT (site GATTATCCTAG) | 0.232
16 | AATTATCCATGGACCGGTTTTCCCGGTAATCCGTATTTGCT (site TATTATCCTAG) | 0.201
17 | AATTATGCATGGACCGGTTTTCCCGGTAATCCGTATTTGGC (site AATTATGCTAC) | 0.00687
18 | AATTATGCATGGACCGGTTTTCCCGGTAATCCGTATTTGGC (site AATTATGCTCC) | 0.0199
19 | AATTATGCATGGACCGGTTTTCCCGGTAATCCGTATTTGGC (site AATTATGCTGC) | 1.33
20 | AATTATGCATGGACCGGTTTTCCCGGTAATCCGTATTTGGC (site AATTATGCTTC) | 0.332
21 | AATTCTTCATGGACCGGTTTTCCCGGTAATCCGTATTTGTA (site AATTCTTCTTA) | 1.04
22 | AATTTACCATGGACCGGTTTTCCCGGTAATCCGTATTTGGC (site AATTTACCTGC) | 0
23 | ACAAAGACATGGACCGGTTTTCCCGGTAATCCGTATTTGAG (site ACAAAGACTCT) | 2.49
24 | ACAAGTTCATGGACCGGTTTTCCCGGTAATCCGTATTTGTG (site ACAAGTTCTCA) | 2.42

Row | Sequence | recombinant UMI read abundance (log10)
25 | ACAATAACATGGACCGGTTTTCCCGGTAATCCGTATTTGCA (site ACAATAACTTG) | 2.65
26 | ACAATAACATGGACCGGTTTTCCCGGTAATCCGTATTTGCA (site ACAGTATCTTG) | 1.03
27 | ACAATATCATGGACCGGTTTTCCCGGTAATCCGTATTTGGA (site ACAATATCTTC) | 2.07
28 | ACAATATCATGGACCGGTTTTCCCGGTAATCCGTATTTGGA (site ACAGTATCTTG) | 0
29 | ACACACCCATGGACCGGTTTTCCCGGTAATCCGTATTTGAC (site ACACAACCTGT) | 0
30 | ACACACCCATGGACCGGTTTTCCCGGTAATCCGTATTTGAC (site ACACACCCTGT) | 0.957
31 | ACACACCCATGGACCGGTTTTCCCGGTAATCCGTATTTGAC (site ACACAGCCTGT) | 0
32 | ACACACCCATGGACCGGTTTTCCCGGTAATCCGTATTTGAC (site ACACATCCTGT) | 0.471
33 | ACACATACATGGACCGGTTTTCCCGGTAATCCGTATTTGAC (site ACACATACTGT) | 2.71
34 | ACACATACATGGACCGGTTTTCCCGGTAATCCGTATTTGAC (site ACACATCCTGT) | 0
35 | ACACATACATGGACCGGTTTTCCCGGTAATCCGTATTTGAC (site ACACATGCTGT) | 1.74
36 | ACACATACATGGACCGGTTTTCCCGGTAATCCGTATTTGAC (site ACACATTCTGT) | 0.554
37 | ACACATCCATGGACCGGTTTTCCCGGTAATCCGTATTTGCC (site ACACATCCTGA) | 1.25
38 | ACACATCCATGGACCGGTTTTCCCGGTAATCCGTATTTGCC (site ACACATCCTGC) | 0
39 | ACACATCCATGGACCGGTTTTCCCGGTAATCCGTATTTGCC (site ACACATCCTGG) | 1.79
40 | ACACATCCATGGACCGGTTTTCCCGGTAATCCGTATTTGCC (site ACACATCCTGT) | 0
41 | ACACATCCATGGACCGGTTTTCCCGGTAATCCGTATTTGTC (site ACACATCCTGA) | 1.53
42 | ACACATCCATGGACCGGTTTTCCCGGTAATCCGTATTTGTC (site ACACATCCTGC) | 0.011
43 | ACACATCCATGGACCGGTTTTCCCGGTAATCCGTATTTGTC (site ACACATCCTGG) | 0
44 | ACACATCCATGGACCGGTTTTCCCGGTAATCCGTATTTGTC (site ACACATCCTGT) | 0.239
45 | ACACCTGCATGGACCGGTTTTCCCGGTAATCCGTATTTGGG (site ACACCTGCTCC) | 0.734
46 | ACACGAACATGGACCGGTTTTCCCGGTAATCCGTATTTGCC (site ACACGAACTGA) | 1.32
47 | ACACGAACATGGACCGGTTTTCCCGGTAATCCGTATTTGCC (site ACACGAACTGC) | 0
48 | ACACGAACATGGACCGGTTTTCCCGGTAATCCGTATTTGCC (site ACACGAACTGG) | 2.57

Row | Sequence | recombinant UMI read abundance (log10)
49 | ACACGAACATGGACCGGTTTTCCCGGTAATCCGTATTTGCC (site ACACGAACTGT) | 1.59
50 | ACACGAACATGGACCGGTTTTCCCGGTAATCCGTATTTGTT (site ACACGAACTAA) | 2.08
51 | ACACGAACATGGACCGGTTTTCCCGGTAATCCGTATTTGTT (site ACACGAACTCA) | 0.359
52 | ACACGAACATGGACCGGTTTTCCCGGTAATCCGTATTTGTT (site ACACGAACTGA) | 1.96
53 | ACACGAACATGGACCGGTTTTCCCGGTAATCCGTATTTGTT (site ACACGAACTTA) | 1.35
54 | ACACGGACATGGACCGGTTTTCCCGGTAATCCGTATTTGCT (site ACACGGACTAG) | 2.76
55 | ACACGTACATGGACCGGTTTTCCCGGTAATCCGTATTTGGG (site ACACGTACTCC) | 0.42
56 | ACACTATCATGGACCGGTTTTCCCGGTAATCCGTATTTGCG (site ACACTATCTCG) | 2.79
57 | ACACTATCATGGACCGGTTTTCCCGGTAATCCGTATTTGCG (site ACAGTATCTTG) | 0
58 | ACACTCCCATGGACCGGTTTTCCCGGTAATCCGTATTTGCG (site CTGACGACTAC) | 0.0266
59 | ACACTGGCATGGACCGGTTTTCCCGGTAATCCGTATTTGAG (site ACACTGGCTCT) | 1.38
60 | ACAGATCCATGGACCGGTTTTCCCGGTAATCCGTATTTGAC (site ACAAATCCTGT) | 0
61 | ACAGATCCATGGACCGGTTTTCCCGGTAATCCGTATTTGAC (site ACACATCCTGT) | 0
62 | ACAGATCCATGGACCGGTTTTCCCGGTAATCCGTATTTGAC (site ACAGATCCTGT) | 0.651
63 | ACAGATCCATGGACCGGTTTTCCCGGTAATCCGTATTTGAC (site ACATATCCTGT) | 0.985
64 | ACAGCATCATGGACCGGTTTTCCCGGTAATCCGTATTTGCA (site ACAGAATCTTG) | 0.803
65 | ACAGCATCATGGACCGGTTTTCCCGGTAATCCGTATTTGCA (site ACAGCATCTTG) | 2.11
66 | ACAGCATCATGGACCGGTTTTCCCGGTAATCCGTATTTGCA (site ACAGGATCTTG) | 0
67 | ACAGCATCATGGACCGGTTTTCCCGGTAATCCGTATTTGCA (site ACAGTATCTTG) | 1.73
68 | ACAGCTTCATGGACCGGTTTTCCCGGTAATCCGTATTTGGC (site ACAGCTTCTGC) | 3.35
69 | ACAGGACCATGGACCGGTTTTCCCGGTAATCCGTATTTGCA (site ACAGGACCTTG) | 0
70 | ACAGGACCATGGACCGGTTTTCCCGGTAATCCGTATTTGCA (site ACAGTATCTTG) | 1.52
71 | ACAGGATCATGGACCGGTTTTCCCGGTAATCCGTATTTGAA (site ACAGGATCTTT) | 2.93
72 | ACAGGATCATGGACCGGTTTTCCCGGTAATCCGTATTTGAA (site ACAGTATCTTG) | 0
